Data reported in US12084485B2 (Intarcia Therapeutics, Inc., priority 2020, dated 2024).

Experiments:
[1] = Solubility in saline or DI water at room temperature (visual inspection); format: physicochemical
[2] = Acute food intake inhibition in Long Evans rats after bolus SC dosing (BioDAQ); format: in vivo, rat; conditions: 30 mcg SC bolus
[3] = Stability in DMSO or DI water at 37° C. (purity by LC/MS and HPLC); format: physicochemical

CC[C@H](C)[C@H](NC(=O)[C@H](Cc1ccccc1)NC(=O)[C@H](CCC(=O)O)NC(=O)[C@H](CCCNC(=N)N)NC(=O)[C@H](C)NC(=O)[C@H](C)NC(=O)[C@H](CCC(=O)O)NC(=O)[C@H](CCCCNC(=O)CC[C@H](NC(=O)CC[C@H](NC(=O)COCCOCCNC(=O)CC[C@H](NC(=O)CC[C@H](NC(=O)CCCCCCCCCCCCCCCCCCC(=O)O)C(=O)O)C(=O)O)C(=O)O)C(=O)O)NC(=O)[C@H](CCC(=O)O)NC(=O)[C@H](Cc1ccc(O)cc1)NC(=O)[C@H](CCC(N)=O)NC(=O)[C@H](CCCCN)NC(=O)[C@H](CO)NC(=O)[C@H](CC(C)C)NC(=O)[C@H](CC(=O)O)NC(=O)[C@H](CO)NC(=O)[C@@H](NC(=O)[C@H](Cc1ccccc1)NC(=O)[C@@H](NC(=O)CNC(=O)[C@H](CCC(=O)O)NC(=O)C(C)(C)NC(=O)[C@@H](N)Cc1c[nH]cn1)[C@@H](C)O)[C@@H](C)O)C(=O)N[C@@H](CCC(=O)O)C(=O)N[C@@H](Cc1c[nH]c2ccccc12)C(=O)N[C@@H](CC(C)C)C(=O)N[C@@H](CCCCN)C(=O)N[C@@H](CC(N)=O)C(=O)NCC(=O)NCC(=O)N1CCC[C@H]1C(=O)N[C@@H](Cc1c[nH]cn1)C(=O)N[C@@H](CO)C(=O)NCC(=O)N[C@@H](C)C(=O)N1CCC[C@H]1C(=O)N1CCC[C@H]1C(=O)N1CCC[C@H]1C(=O)N[C@@H](CO)C(N)=O [Compound A154]
solubility ([1]; Solubility (mg/mL) in DI water): > 70 mg/mL
solubility ([1]; Solubility (mg/mL) in saline): > 106 mg/mL

CC[C@H](C)[C@H](NC(=O)[C@H](Cc1ccccc1)NC(=O)[C@H](CCC(N)=O)NC(=O)[C@H](CCCNC(=N)N)NC(=O)[C@@H](NC(=O)[C@H](C)NC(=O)[C@H](CCC(=O)O)NC(=O)[C@H](CCCCNC(=O)CC[C@H](NC(=O)CC[C@H](NC(=O)COCCOCCNC(=O)CCCCCCCCCCCCCCCCCCC(=O)O)C(=O)O)C(=O)O)NC(=O)[C@H](CCC(=O)O)NC(=O)[C@H](Cc1ccc(O)cc1)NC(=O)[C@H](CCC(N)=O)NC(=O)[C@H](CCCCN)NC(=O)[C@H](CO)NC(=O)[C@H](CC(C)C)NC(=O)[C@H](CC(=O)O)NC(=O)[C@H](CO)NC(=O)[C@@H](NC(=O)[C@H](Cc1ccccc1)NC(=O)[C@@H](NC(=O)CNC(=O)[C@H](CCC(=O)O)NC(=O)C(C)(C)NC(=O)[C@@H](N)Cc1c[nH]cn1)[C@@H](C)O)[C@@H](C)O)C(C)C)C(=O)N[C@@H](CO)C(=O)N[C@@H](Cc1c[nH]c2ccccc12)C(=O)N[C@@H](CC(C)C)C(=O)N[C@@H](CCCCN)C(=O)N[C@@H](CC(N)=O)C(=O)NCC(=O)NCC(=O)N1CCC[C@H]1C(=O)N[C@@H](CO)C(=O)N[C@@H](CO)C(=O)NCC(=O)N[C@@H](C)C(=O)N1CCC[C@H]1C(=O)N1CCC[C@H]1C(=O)N1CCC[C@H]1C(=O)N[C@@H](CO)C(N)=O [Compound A96]
solubility ([1]; Solubility (mg/mL) in DI water): > 128 mg/mL
solubility ([1]; Solubility (mg/mL) in saline): > 133 mg/mL

CC[C@H](C)[C@H](NC(=O)[C@H](Cc1ccccc1)NC(=O)[C@H](CCC(=O)O)NC(=O)[C@H](CCCNC(=N)N)NC(=O)[C@H](C)NC(=O)[C@H](C)NC(=O)[C@H](CCC(=O)O)NC(=O)[C@H](CCCCNC(=O)CC[C@H](NC(=O)CC[C@H](NC(=O)COCCOCCNC(=O)CC[C@H](NC(=O)CC[C@H](NC(=O)CCCCCCCCCCCCCCCCCCC(=O)O)C(=O)O)C(=O)O)C(=O)O)C(=O)O)NC(=O)[C@H](CCC(=O)O)NC(=O)[C@H](Cc1ccc(O)cc1)NC(=O)[C@H](CCC(N)=O)NC(=O)[C@H](CCC(=O)O)NC(=O)[C@H](CO)NC(=O)[C@@H](NC(=O)[C@H](CC(=O)O)NC(=O)[C@H](CO)NC(=O)[C@@H](NC(=O)[C@H](Cc1ccccc1)NC(=O)[C@@H](NC(=O)CNC(=O)[C@H](CCC(=O)O)NC(=O)C(C)(C)NC(=O)[C@@H](N)Cc1c[nH]cn1)[C@@H](C)O)[C@@H](C)O)[C@@H](C)CC)C(=O)N[C@@H](CCC(=O)O)C(=O)N[C@@H](Cc1c[nH]c2ccccc12)C(=O)N[C@@H](CC(C)C)C(=O)N[C@@H](CCCCN)C(=O)N[C@@H](CC(N)=O)C(=O)NCC(=O)NCC(=O)N1CCC[C@H]1C(=O)N[C@@H](CO)C(=O)N[C@@H](CO)C(=O)NCC(=O)N[C@@H](C)C(=O)N1CCC[C@H]1C(=O)N1CCC[C@H]1C(=O)N1CCC[C@H]1C(=O)N[C@@H](CO)C(N)=O [Compound A80]
solubility ([1]; Solubility (mg/mL) in DI water): > 78 mg/mL
solubility ([1]; Solubility (mg/mL) in saline): > 75 mg/mL

CC[C@H](C)[C@H](NC(=O)[C@H](Cc1ccccc1)NC(=O)[C@H](CCC(=O)O)NC(=O)[C@H](CCCNC(=N)N)NC(=O)[C@@H](NC(=O)[C@H](C)NC(=O)[C@H](CCC(=O)O)NC(=O)[C@H](CCCCNC(=O)CC[C@H](NC(=O)CC[C@H](NC(=O)COCCOCCNC(=O)CCCCCCCCCCCCCCCCCCC(=O)O)C(=O)O)C(=O)O)NC(=O)[C@H](CCC(=O)O)NC(=O)[C@H](Cc1ccc(O)cc1)NC(=O)[C@H](CCC(N)=O)NC(=O)[C@H](CCCCN)NC(=O)[C@H](CO)NC(=O)[C@H](CC(C)C)NC(=O)[C@H](CC(=O)O)NC(=O)[C@H](CO)NC(=O)[C@@H](NC(=O)[C@H](Cc1ccccc1)NC(=O)[C@@H](NC(=O)CNC(=O)[C@H](CCC(=O)O)NC(=O)C(C)(C)NC(=O)[C@@H](N)Cc1c[nH]cn1)[C@@H](C)O)[C@@H](C)O)C(C)C)C(=O)N[C@@H](CCC(=O)O)C(=O)N[C@@H](Cc1c[nH]c2ccccc12)C(=O)N[C@@H](CC(C)C)C(=O)N[C@@H](CCCCN)C(=O)N[C@@H](CC(N)=O)C(=O)NCC(=O)NCC(=O)N1CCC[C@H]1C(=O)N[C@@H](Cc1c[nH]cn1)C(=O)N[C@@H](CO)C(=O)NCC(=O)N[C@@H](C)C(=O)N1CCC[C@H]1C(=O)N1CCC[C@H]1C(=O)N1CCC[C@H]1C(=O)N[C@@H](CO)C(N)=O [Compound A152]
solubility ([1]; Solubility (mg/mL) in DI water): > 109 mg/mL
solubility ([1]; Solubility (mg/mL) in saline): > 101 mg/mL

CC[C@H](C)[C@H](NC(=O)[C@H](Cc1ccccc1)NC(=O)[C@H](CCCCN)NC(=O)[C@H](CCCNC(=N)N)NC(=O)[C@H](C)NC(=O)[C@H](C)NC(=O)[C@H](CCC(=O)O)NC(=O)[C@H](CCCCNC(=O)CC[C@H](NC(=O)CC[C@H](NC(=O)COCCOCCNC(=O)CCCCCCCCCCCCCCCCCCC(=O)O)C(=O)O)C(=O)O)NC(=O)[C@H](CCC(=O)O)NC(=O)[C@H](Cc1ccc(O)cc1)NC(=O)[C@H](CCC(N)=O)NC(=O)[C@H](CCCCN)NC(=O)[C@H](CO)NC(=O)[C@H](CC(C)C)NC(=O)[C@H](CC(=O)O)NC(=O)[C@H](CO)NC(=O)[C@@H](NC(=O)[C@H](Cc1ccccc1)NC(=O)[C@@H](NC(=O)CNC(=O)[C@H](CCC(=O)O)NC(=O)C(C)(C)NC(=O)[C@@H](N)Cc1c[nH]cn1)[C@@H](C)O)[C@@H](C)O)C(=O)N[C@@H](CO)C(=O)N[C@@H](Cc1c[nH]c2ccccc12)C(=O)N[C@@H](CC(C)C)C(=O)N[C@@H](CCCCN)C(=O)N[C@@H](CC(N)=O)C(=O)NCC(=O)NCC(=O)N1CCC[C@H]1C(=O)N[C@@H](Cc1c[nH]cn1)C(=O)N[C@@H](CO)C(=O)NCC(=O)N[C@@H](C)C(=O)N1CCC[C@H]1C(=O)N1CCC[C@H]1C(=O)N1CCC[C@H]1C(=O)N[C@@H](CO)C(N)=O [Compound A62]
% Food Intake Inhibition from Vehicle, 0-24 hr ([2]; 0-24 hr): −37.1%
% Food Intake Inhibition from Vehicle, 25-48 hr ([2]; 25-48 hr): −48.8%
% Food Intake Inhibition from Vehicle, 49-72 hr ([2]; 49-72 hr): −47.4%
% Food Intake Inhibition from Vehicle, 73-96 hr ([2]; 73-96 hr): 19.5%

CC[C@H](C)[C@H](NC(=O)[C@H](Cc1ccccc1)NC(=O)[C@H](CCC(=O)O)NC(=O)[C@H](CCCNC(=N)N)NC(=O)[C@H](C)NC(=O)[C@H](C)NC(=O)[C@H](CCC(=O)O)NC(=O)[C@H](CCNC(=O)CC[C@H](NC(=O)CC[C@H](NC(=O)COCCOCCNC(=O)CC[C@H](NC(=O)CC[C@H](NC(=O)CCCCCCCCCCCCCCCCCCC(=O)O)C(=O)O)C(=O)O)C(=O)O)C(=O)O)NC(=O)[C@H](CCC(=O)O)NC(=O)[C@H](Cc1ccc(O)cc1)NC(=O)[C@H](CCC(N)=O)NC(=O)[C@H](CCCCN)NC(=O)[C@H](CO)NC(=O)[C@H](CC(C)C)NC(=O)[C@H](CC(=O)O)NC(=O)[C@H](CO)NC(=O)[C@@H](NC(=O)[C@H](Cc1ccccc1)NC(=O)[C@@H](NC(=O)CNC(=O)[C@H](CCC(=O)O)NC(=O)C(C)(C)NC(=O)[C@@H](N)Cc1c[nH]cn1)[C@@H](C)O)[C@@H](C)O)C(=O)N[C@@H](CCC(=O)O)C(=O)N[C@@H](Cc1c[nH]c2ccccc12)C(=O)N[C@@H](CC(C)C)C(=O)N[C@@H](CCCCN)C(=O)N[C@@H](CC(N)=O)C(=O)NCC(=O)NCC(=O)N1CCC[C@H]1C(=O)N[C@@H](CO)C(=O)N[C@@H](CO)C(=O)NCC(=O)N[C@@H](C)C(=O)N1CCC[C@H]1C(=O)N1CCC[C@H]1C(=O)N1CCC[C@H]1C(=O)N[C@@H](CO)C(N)=O [Compound A72]
Stability @ 37° C. (% purity) Day 14 [3]: 98.7%
Stability @ RT (% purity) Day 28 [3]: 95.1%
